Entries after “also recorded” stand apart in the source; their conditions may differ.
Legend:
[1] = molecular target: Keap1-Nrf2 PPI (Keap1 Kelch domain / FITC-9mer Nrf2 peptide amide) (Homo sapiens, UniProt Q14145); experiment: Fluorescence polarization; conditions: FP assay, triplicates
[2] = tested on: Nrf2 target genes GSTM3, HMOX1, NQO1 in NCM460D cells; experiment: Expression of Nrf2-ARE regulated genes by RT-qPCR in NCM460D cells; assay type: cell-based; conditions: NCM460D cells, 100, 10 and 1 μM, 24 h, RT-PCR

Sequence of Keap1-Nrf2 PPI (Keap1 Kelch domain / FITC-9mer Nrf2 peptide amide) (Q14145 321-609 limits assumed): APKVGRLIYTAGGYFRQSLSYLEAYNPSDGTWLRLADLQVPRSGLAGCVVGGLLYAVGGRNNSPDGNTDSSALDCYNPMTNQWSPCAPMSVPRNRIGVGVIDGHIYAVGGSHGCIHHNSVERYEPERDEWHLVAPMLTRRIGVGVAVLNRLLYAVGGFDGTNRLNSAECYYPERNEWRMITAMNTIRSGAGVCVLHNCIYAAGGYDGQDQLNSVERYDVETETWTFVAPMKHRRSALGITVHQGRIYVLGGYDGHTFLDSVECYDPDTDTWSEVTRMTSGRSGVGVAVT

COc1ccc(S(=O)(=O)N(CC(=O)O)c2ccc(N(CC(=O)O)S(=O)(=O)c3ccc(OC)cc3)c(N3CCCCC3)c2)cc1 [7b, 2-(Piperidin-1-yl)-1,4-bis(4-methoxyphenylsulfonamido)benzene-N,N'-diacetic acid]
inhibition at 5 µM [1]: ~50%

Cc1ccc(S(=O)(=O)N(CC(=O)O)c2ccc(N(CC(=O)O)S(=O)(=O)c3ccc(C)cc3)c(OCc3ccc(F)cc3)c2)cc1 [7v, 2-(4-Fluorobenzyloxy)-1,4-bis(4-methylphenylsulfonamido)benzene-N,N'-diacetic acid]
transcription (mRNA levels) of Nrf2 target genes GSTM3, HMOX1 and NQO1 [2]: no effects

Cc1ccc(S(=O)(=O)N(CC(=O)O)c2cc(OCc3ccc(F)cc3)c(N(CC(=O)O)S(=O)(=O)c3ccc(C)cc3)c3ccccc23)cc1 [12d, 2-(4-Fluorobenzyloxy)-1,4-bis(4-methylphenylsulfonamido)naphthalene-N,N'-diacetic acid]
transcription (mRNA levels) of Nrf2 target genes GSTM3, HMOX1 and NQO1 [2]: significantly increased; also recorded: effectively stimulate transcription

From PMC10265587 (European journal of medicinal chemistry, 2022)
